For test [1], the system named is LPS-stimulated BV2 microglial cells. As to the kind of experiment: NO production (nitrite, Griess reaction) in LPS-stimulated BV2 microglial cells. In kind it is cell-based, murine. The following applies: for Effect on alteration of NO production: 80.0 μM; for IC50: Mus musculus, BV-2, mean ± SD of triplicate experiments, read-out: NO Inhibitory Effects, BV2 Cells (IC50). From the text: (§1) LPS is a major cell wall component of Gram-negative bacteria. LPS is an intensive stimulator of macrophages and microglia, and thus treatment of these cells with LPS is frequently employed in research related to the inflammatory phenomenon. In the current study, all the isolated compounds (1–5) were investigated for their anti-neuroinflammatory and anti-inflammatory effects by examining their effects on the overproduction of NO and PGE2 in LPS-stimulated BV2 microglia and RAW264.7 macrophage cells. LPS stimulation increased the production of NO and PGE2 in both cell lines. […] Thus, this compound was selected to further examine the anti-inflammatory effect and to reveal its underlying mechanisms. […] Moreover, compound 2 attenuated the protein expression of iNOS and COX-2 in a dose-dependent manner in LPS-stimulated BV2 cells (Figure 3A).
(§2) RAW264.7 and BV2 cells were maintained at 5 × 10^5 cells/mL in Dulbecco’s modified Eagle’s medium (DMEM) containing 10% fetal bovine serum (FBS), penicillin G (100 U/mL), streptomycin (100 mg/L), and L-glutamine (2 mM) and incubated at 37 °C in a humidified atmosphere containing 5% CO2. DMEM, FBS, and other tissue culture reagents were purchased from Gibco BRL Co. Cell viability was evaluated by the MTT assay as described in our previous report.
To determine the nitrite concentration in the medium as an indicator of NO production, the Griess reaction was carried out as described in our previous report.

For test [2] the test system is unchanged. The test is described as follows: PGE2 production in LPS-stimulated BV2 cells. The note with it: Mus musculus, BV-2, mean ± SD of triplicate experiments, read-out: PGE2 Inhibitory Effects, BV2 Cells (IC50). In kind it is cell-based, murine.
From the text: as §1, §2
The level of PGE2 present in each sample was determined using a commercially available kit from R&D Systems (Minneapolis, MN, USA); the details of this assay were described previously. Three independent assays were performed according to the manufacturer’s instructions.

Test [3] concerns the target T1, PTP1B (human, recombinant) (Homo sapiens, UniProt P18031).
T1 construct: purchased BIOMOL Research Laboratories, Inc
T1 sequence (P18031 1-435): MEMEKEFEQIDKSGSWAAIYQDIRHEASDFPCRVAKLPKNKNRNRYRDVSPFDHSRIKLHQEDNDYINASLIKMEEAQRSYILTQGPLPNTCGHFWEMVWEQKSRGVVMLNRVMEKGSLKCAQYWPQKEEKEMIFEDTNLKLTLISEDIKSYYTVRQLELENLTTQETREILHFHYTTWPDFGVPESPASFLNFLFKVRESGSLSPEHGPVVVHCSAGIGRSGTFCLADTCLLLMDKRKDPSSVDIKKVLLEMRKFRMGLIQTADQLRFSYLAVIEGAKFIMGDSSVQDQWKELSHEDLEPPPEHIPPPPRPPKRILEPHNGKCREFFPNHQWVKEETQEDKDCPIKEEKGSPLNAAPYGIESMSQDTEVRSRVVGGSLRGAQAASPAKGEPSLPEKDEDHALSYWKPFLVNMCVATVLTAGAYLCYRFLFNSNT
The test is described as follows: PTP1B enzyme assay with pNPP substrate. In kind it is biochemical. The following applies: for inhibition at 50 µM: 50 μM compound, read-out: Inhibitory Effects on PTP1B, inhibition percentage at 50 μM; for inhibition at 50 µM / IC50: pNPP substrate; for Mode of PTP1B inhibition (Lineweaver–Burk plot): pNPP 0.25-2.0 mM, Km and Vmax analysis; for IC50: mean ± SD of triplicate experiments, read-out: Inhibitory Effects on PTP1B (IC50). How it is done: In addition to the investigation of the anti-inflammatory and anti-neuroinflammatory effects of the isolated metabolites in cellular models, this study attempted to assess the inhibitory effect of the isolated compounds against PTP1B activity.
PTP1B (human, recombinant) used in the current study was purchased from BIOMOL Research Laboratories, Inc. PTP1B enzyme activity was determined using 2 mM of pNPP as a substrate in 50 mM citrate buffer solution (pH 6.0, 0.1 M NaCl, 1 mM EDTA, and 1 mM dithiothreitol). The reaction mixture was incubated at 30 °C for 30 min, and the reaction was terminated by the addition of 1 N NaOH. The amount of p-nitrophenol produced by the enzyme was estimated by measuring the increase in absorbance at 405 nm. The nonenzymatic hydrolysis of 2 mM pNPP was corrected by measuring the increase in absorbance at 405 nm in the absence of PTP1B [31]. The kinetic analysis involved the following: the assays were performed using a reaction mixture that contained different concentrations of pNPP (0.25 mM, 0.5 mM, 1.0 mM, and 2.0 mM) as a PTP1B substrate in the absence or presence of compounds 4 and 5. The Michaelis–Menten constant (Km) and maximum velocity (Vmax) of PTP1B were determined by the Lineweaver–Burk plot using the GraphPad Prism® 4 program (GraphPad Software Inc., San Diego, CA, USA).

Test [4] deals with MAPK pathways (ERK, JNK, p38 MAPK) in LPS-stimulated BV2 cells. The test is described as follows: MAPK phosphorylation (western blot) in LPS-stimulated BV2 cells. The note with it: 1.0, 2.0, 4.0 μM pre-treatment 3 h, LPS 1 h. In kind it is cell-based, murine. How it is done: After pre-treatment with compound 2 (1.0, 2.0, and 4.0 μM) for 3 h, the cells were stimulated with LPS for 1 h. Western blot analysis was performed to determine the phosphorylated levels of extracellular signal-regulated kinases (ERK) (p-ERK), c-Jun N-terminal kinases (JNK) (p-JNK), and p38 MAPK (p-p38 MAPK). Representative blots of three independent experiments are shown. Band intensity was quantified by densitometry and normalized to β-actin. * p < 0.05; *** p < 0.001 as compared to the LPS-treated group.
(§3) Western blot analysis was carried out according to our previous report. Briefly, cells were harvested by centrifugation at 200 g for 3 min, followed by a washing step with RIPA lysis buffer (25 mM Tris-HCl buffer (pH 7.6), 150 mM NaCl, 1% NP-40, 1% sodium deoxycholate, and 0.1% SDS). Primary antibodies (COX-2: sc-1745; iNOS: sc-650; IкB-α: sc-371; p-IкB-α: sc-8404; p50: sc-7178; and p65: sc-8008) were purchased from Santa Cruz Biotechnology, and secondary antibodies (mouse: ap124p; goat: ap106p; and rabbit: ap132p) were purchased from Millipore.

The test system of test [5] is iNOS and COX-2 protein expression in LPS-stimulated BV2 cells. As to the kind of experiment: Western blot of iNOS and COX-2 in LPS-stimulated BV2 cells. In kind it is cell-based, murine. The note with it: 1.0, 2.0, 4.0 μM, dose-dependent, LPS 1 μg/mL 24 h. On the procedure: Cells were pre-treated with compound 2 (1.0, 2.0, and 4.0 μM) for 3 h and stimulated with LPS (1 μg/mL) for 24 h. The representative blots of three independent analyses for iNOS and COX-2 expression are shown.
as §3
A general note: A western blot detects proteins with antibodies after separation by electrophoresis.

For test [6], the system named is PC12 pheochromocytoma cells. Set-up: method as in doi:10.1002/1099-0690(200105)2001:10<1963::AID-EJOC1963>3.0.CO. The following applies: cited from earlier work.
In test [7] the test system is NF-κB pathway in LPS-stimulated BV2 cells. The test is described as follows: NF-κB pathway activation (western blot, DNA-binding ELISA) in LPS-stimulated BV2 cells. In kind it is cell-based, murine. How it is done:
After pre-treatment with compound 2 (1.0, 2.0, and 4.0 μM) for 3 h, the cells were stimulated with LPS for 1 h. (A–F) Proteins were obtained, and specific anti-IκB-α, anti-p- IκB-α, anti-p65, and anti-p50 antibodies were employed for western blot analysis. Representative blots of three independent experiments are shown. Band intensity was quantified by densitometry and normalized to β-actin for the cytoplasmic fraction and to proliferating cell nuclear antigen (PCNA) for the nuclear fraction. (G, H) NF-κB binding activity in the nuclear fraction was determined using an NF-κB ELISA kit by Active Motif (* p < 0.05; ** p < 0.01; *** p < 0.001) and then compared to that of the LPS-treated group.
Western blot analysis was carried out according to our previous report. Briefly, cells were harvested by centrifugation at 200 g for 3 min, followed by a washing step with RIPA lysis buffer (25 mM Tris-HCl buffer (pH 7.6), 150 mM NaCl, 1% NP-40, 1% sodium deoxycholate, and 0.1% SDS). […]
The DNA-binding activity of NF-κB in the nuclear extracts was measured using the TransAM® kit (Active Motif, Carlsbad, CA, USA); three independent assays for each sample were conducted according to the manufacturer’s instructions.

In test [8] the test system is IL-1β, TNF-α, IL-6, IL-12 mRNA in LPS-stimulated BV2 cells. The test is described as follows: qRT-PCR of pro-inflammatory cytokine mRNA in LPS-stimulated BV2 cells. In kind it is cell-based, murine. The note with it: 3 h pre-treatment, LPS 1 µg/mL for 12 h.
For a further test, the system named is endothelin binding. The note with it: cited from earlier work.
Another test deals with HIV-1-integrase. The note with it: cited from earlier work.

As for `COc1cc2c(cc1O)OCC1=C2O[C@@H](C)CC1=O` [Compound 1, 9-O-methylneuchromenin], the “Effect on alteration of NO production” value in [1] is recorded as “did not significantly affect”. Further, the IC50 in [1] and in test [2] was above 80 µM throughout. The inhibition at 50 µM in test [3] was 45.7%.
Take `C[C@H]1CC(=O)C2=C(O1)c1cc(O)c(O)cc1OC2` [Compound 2, neuchromenin]: in test [4], the “Increased phosphorylation levels of ERK and JNK MAPKs” value is listed as “unchanged”; the “LPS-induced p38 MAPK phosphorylation” value is “inhibited”. The “Protein expression of iNOS and COX-2” value in test [5] is given as “attenuated”. Moreover, in test [1], the IC50 came out at 2.7 ± 0.1 µM. In addition, in [6], the “Neurite outgrowth in PC12 pheochromocytoma cells” value is reported as “induced neurite outgrowth”. For the same compound, in test [7] (1.0, 2.0, 4.0 μM pre-treatment 3 h, LPS 1 h), the “Activation of the NF-κB pathway (IκB-α phosphorylation/degradation, p50/p65 nuclear translocation)” value is “suppressed”. In [7] (nuclear fraction, NF-κB ELISA kit), the “DNA binding activity of the p65 subunit” value is given as “decreased”. Moreover, the “mRNA over-expression of IL-1β, TNF-α, IL-6 and IL-12” value in [8] is listed as “effectively decreased”. Also, in test [2], the IC50 is 3.2 ± 0.2 µM. The inhibition at 50 µM in [3] came to 37.8%.
As to `COC(=O)c1cc(O)cc(OC)c1Oc1cc(C)cc(O)c1C(=O)O` [Compound 3, asterric acid], in test [1], the “Effect on alteration of NO production” value is recorded as “did not significantly affect” and the IC50 is above 80 µM. In [2], the IC50 was above 80 µM. Also, the Endothelin binding inhibition result in the test on endothelin binding was “endothelin binding inhibitor”. Further, the inhibition at 50 µM in test [3] was found to be 13.7%.
Turning to `CC1=Cc2oc3cc(O)c(O)cc3c(=O)c2CO1` [Compound 4, myxotrichin C], the IC50 in test [1] was 28.1 ± 1.4 µM; in test [2] it was 25.2 ± 1.3 µM; in test [3], 19.2 ± 1 µM. Besides, the “Mode of PTP1B inhibition (Lineweaver–Burk plot)” value in test [3] was “noncompetitive inhibitor”.
`C/C=C/c1cc(=O)c(C(=O)c2c(OC)cc(OC)cc2C(=O)OC)co1` [Compound 5, deoxyfunicone]: the IC50 in test [1] was determined as 10.6 ± 0.5 µM; in [2], 32.3 ± 1.6 µM; in [3], 24.3 ± 1.2 µM. The HIV-1-integrase inhibition entry in the test with HIV-1-integrase was “HIV-1-integrase inhibitor”. Also, in test [3], the “Mode of PTP1B inhibition (Lineweaver–Burk plot)” value is “competitive”.

What is called IC50 is the point on the concentration scale where inhibition reaches its midpoint. Broadly, the inhibition is the change of the read-out against control, counted positive when it falls.

The record behind these values is article PMC7281349, “Anti-Inflammatory and Protein Tyrosine Phosphatase 1B Inhibitory Metabolites from the Antarctic Marine-Derived Fungal Strain Penicillium glabrum SF-7123” (Marine Drugs, 2020).
